From US20040229867A1, “Treatment of gastrointestinal dysfunction and related stress with an enantiomerically-pure (R) 2,3-benzodiazepine” (priority 2003, published 2004)

Columns and labels:
[1] = system: stress-induced ulcer formation; assay: Water immersion stress-induced ulcers test; format: in vivo, rat; settings: for Score for the Presence of Ulcers Mean ± SEM: score 0-4; for Ulceration Index: ulcer score x percentage of stomachs showing ulcers; for effect on ulcer score: text summary of Table 4
[2] = system: colonic propulsive motility; assay: Glass bead test (stimulated colonic propulsion); format: in vivo, mouse; settings: for Expulsion Time Mean ± SEM: 30 minutes prior to bead insertion, cutoff 30 minutes, in min
Experimental: In the test, usually performed in mice, a 3-mm glass bead is inserted through the anus into the distal colon (using a glass rod) to a depth of 2 cm. The time to expel the glass bead is then measured; normally, the glass bead is expelled in approximately 10 minutes. This model is especially sensitive to compounds with inhibitory effects on stretch-stimulated propulsive motor activity; as such, it is often used as an animal model for IBS. A test compound that inhibits stretch-stimulated-colonic propulsive motility, may be used to treat gastrointestinal dysfunction, including IBS. […] The glass bead test is commonly used to evaluate the ability of compounds to affect stimulated colonic propulsion. In the test, usually performed in mice, a 3-mm glass bead is inserted through the anus into the distal colon (using a glass rod) to a depth of 2 cm. The time to expel the glass bead is then measured; normally, the glass bead is expelled in approximately 10 minutes. This model is especially sensitive to compounds with inhibitory effects on stretch-stimulated propulsive motor activity; as such, it is often used as an animal model for IBS. In each study, RS— and R-tofisopam were evaluated for their ability to increase or decrease the time for expulsion of the glass bead.

[3] = system: dextran sulfate sodium-induced colitis; assay: Dextran sulfate sodium-induced colitis; format: in vivo; settings: DSS 5% solution in tap water
Description: Another gastrointestinal disorder model tested was the dextran sulfate sodium-induced colitis. In this model of colitis, an acute inflammation of the colon is produced by administration of dextran sulfate sodium (DSS) as a 5% solution in tap water. This colitis is characterized by histological events and an influx of neutrophils, macrophages and mediators of inflammation similar to those observed with human inflammatory bowel diseases.

[4] = system: abdominal contractions induced by colonic distension; assay: Visceral hypersensitivity, pain and bloating test (colonic distension after 1% acetic acid); format: in vivo, rat
[5] = system: gastrointestinal propulsive motility; assay: Charcoal meal test (basal gastrointestinal propulsive motility); format: in vivo, rat; settings: for % Inhibition: numbers in parentheses indicate % increase; for effect on charcoal meal transit: R-tofisopam at the highest dose tested, loperamide positive control
[6] = system: stress-induced ulcers; settings: pre-treatment 30 or 100 mg/kg PO; cited from earlier work
[7] = system: gastric function; settings: cited from earlier work
[8] = system: hydrochloric acid-induced, alkali-induced and cauterization-induced ulcers; settings: in vivo; cited from earlier work
[9] = system: dextran sulfate sodium-induced colitis; settings: in vivo; cited from earlier work
[10] = 8 mg/kg IP 30 minutes prior to water immersion
[11] = first experiment, 64 mg/kg IP, 30 minutes prior to charcoal meal

SMILES	% of Stomachs Showing Ulcers ([1]; 16 mg/kg IP)	Score for the Presence of Ulcers Mean ± SEM ([1]; 16 mg/kg IP)	Ulceration Index ([1]; 16 mg/kg IP)	% of Stomachs Showing Ulcers ([1]; 32 mg/kg IP)	Score for the Presence of Ulcers Mean ± SEM ([1]; 32 mg/kg IP)	Ulceration Index ([1]; 32 mg/kg IP)	effect on ulcer score [1]	% Inhibition ([2]; 16 mg/kg IP)	Expulsion Time Mean ± SEM ([2]; 16 mg/kg IP)	% Inhibition ([2]; 32 mg/kg IP)	Expulsion Time Mean ± SEM ([2]; 32 mg/kg IP)	% Inhibition ([2]; 64 mg/kg IP)	Expulsion Time Mean ± SEM ([2]; 64 mg/kg IP)	% of Stomachs Showing Ulcers ([1]; 8 mg/kg IP)	Score for the Presence of Ulcers Mean ± SEM [1, 10]	Ulceration Index ([1]; 8 mg/kg IP)	% of Stomachs Showing Ulcers ([1]; 64 mg/kg IP)	Score for the Presence of Ulcers Mean ± SEM ([1]; 64 mg/kg IP)	% Intestine Traversed Mean ± SEM ([5]; second experiment, 16 mg/kg IP)	% Inhibition ([5]; second experiment, 16 mg/kg IP)	further results
CN1C(=O)CC(=O)N(c2ccccc2)c2cc(Cl)ccc21 [Clobazam, clobazam]	100%	3.6 ± 0.2	363	75%	2.6 ± 0.5	197	reduced the ulcer score slightly, but this effect was not statistically significant	–	–	–	–	–	–	–	–	–	–	–	–	–	–
CC[C@H]1C(C)=NN=C(c2ccc(OC)c(OC)c2)c2cc(OC)c(OC)cc21 [R-tofisopam, (R)-1-(3,4-dimethoxyphenyl)-4-methyl-5-ethyl-7,8-dimethoxy-5H-2,3-benzodiazepine]	88%	3.1 ± 0.5	273	88%	3.1 ± 0.5	273	significantly reduced the ulcer score	100%	30.0 ± 0.0	99%	29.7 ± 0.3	90%	28.0 ± 1.1	100%	3.6 ± 0.3	363	29%	1.7 ± 0.6	65.7 ± 3.0%	12.1%	effect on colonic expulsion ([2]; text summary of Table 1, 16-64 mg/kg IP): significantly prolonged (i.e., slowed) colonic expulsion; effect in DSS colitis model compared with racemic tofisopam [3]: substantially greater effect; decrease of abdominal cramps versus vehicle control ([4]; 32 mg/kg p.o.): 49%; number of abdominal cramps ([4]; 32 mg/kg p.o., vehicle control 18.8 cramps): 9.5±1.7 cramps; Ulceration Index ([1]; 64 mg/kg IP): 49; % of Stomachs Showing Ulcers ([1]; 128 mg/kg IP): 38%; Score for the Presence of Ulcers Mean ± SEM ([1]; 128 mg/kg IP): 1.4 ± 0.2; Ulceration Index ([1]; 128 mg/kg IP): 52; % Intestine Traversed Mean ± SEM ([5]; first experiment, 16 mg/kg IP): 82.8 ± 3.1%; % Intestine Traversed Mean ± SEM ([5]; first experiment, 32 mg/kg IP): 85.4 ± 2.9%; % Intestine Traversed Mean ± SEM [5, 11]: 72.9 ± 2.9 %; % Inhibition ([5]; first experiment, 64 mg/kg IP): 10.6%; % Intestine Traversed Mean ± SEM ([5]; second experiment, 4 mg/kg IP): 71.72 ± 3.2%; % Inhibition ([5]; second experiment, 4 mg/kg IP): 4.1%; % Intestine Traversed Mean ± SEM ([5]; second experiment, 8 mg/kg IP): 75.2 ± 4.1%; % Intestine Traversed Mean ± SEM ([5]; second experiment, 32 mg/kg IP): 59.5 ± 3.2 %; % Inhibition ([5]; second experiment, 32 mg/kg IP): 20.3%; effect on charcoal meal transit ([5]; second experiment): only a slight inhibition
CCC1C(C)=NN=C(c2ccc(OC)c(OC)c2)c2cc(OC)c(OC)cc21 (racemic) [RS-tofisopam, tofisopam]	100%	3.4 ± 0.3	338	100%	3.5 ± 0.3	350	–	46%	19.0 ± 2.8	71%	23.7 ± 2.6	82%	26.4 ± 2.4	100%	3.4 ± 0.3	338	100%	3.1 ± 0.3	70.4 ± 3.7%	5.8%	reduction of number of stress-induced ulcers and total area of ulceration [6]: ≤ 90%; effect on basal gastric acid output and mucosal blood flow ([7]; intracerebroventricular injection 50 or 100 μg): increased both basal gastric acid output and mucosal blood flow; effect on basal gastric acid output ([7]; intravenous injection 10 mg/kg): did not change basal gastric acid output; effect on number of abdominal contractions versus vehicle control ([4]; 32 mg/kg): did not significantly modify; Ulceration Index ([1]; 64 mg/kg IP): 313; % of Stomachs Showing Ulcers ([1]; 128 mg/kg IP): 75%; Score for the Presence of Ulcers Mean ± SEM ([1]; 128 mg/kg IP): 2.4 ± 0.4; Ulceration Index ([1]; 128 mg/kg IP): 178; effect on cauterization-induced ulcers [8]: promoted the healing; effect on hydrochloric acid-induced and alkali-induced ulcers [8]: suppressed the development; % Intestine Traversed Mean ± SEM ([5]; first experiment, 16 mg/kg IP): 73.5 ± 3.5%; % Inhibition ([5]; first experiment, 16 mg/kg IP): 9.8%; % Intestine Traversed Mean ± SEM ([5]; first experiment, 32 mg/kg IP): 77.7 ± 2.3%; % Inhibition ([5]; first experiment, 32 mg/kg IP): 4.7%; % Intestine Traversed Mean ± SEM [5, 11]: 81.7 ± 2.8%; % Inhibition ([5]; first experiment, 64 mg/kg IP): 0%; % Intestine Traversed Mean ± SEM ([5]; second experiment, 4 mg/kg IP): 77.9 ± 2.9%; % Intestine Traversed Mean ± SEM ([5]; second experiment, 8 mg/kg IP): 78.3 ± 1.7%; % Intestine Traversed Mean ± SEM ([5]; second experiment, 32 mg/kg IP): 65.6 ± 4.5%; % Inhibition ([5]; second experiment, 32 mg/kg IP): 12.2%
CN(C)C(=O)C(CCN1CCC(O)(c2ccc(Cl)cc2)CC1)(c1ccccc1)c1ccccc1 [Loperamide, loperamide]	–	–	–	–	–	–	–	–	–	–	–	–	–	–	–	–	–	–	28.1 ± 2.2 %	62.5%	effect on charcoal meal transit ([5]; second experiment): considerable slowing
O=C(O)c1cc(/N=N/c2ccc(S(=O)(=O)Nc3ccccn3)cc2)ccc1O [sulfasalazine]	–	–	–	–	–	–	–	–	–	–	–	–	–	–	–	–	–	–	–	–	activity in DSS colitis model [9]: have been shown to have activity in this model
